Assay results taken from US10182981B2, “Method of regulating a skin condition” (priority 2015, dated 2019).

Tested on: IL-18
Experiment: Evaluation of skin sensitization potential (IL-18 production in HEK)
Type: cell-based, human
Conditions: HEK lysate, 16 h
Source text: It is possible for a material to not be cytotoxic, and yet be unsafe due to provoking an allergic reaction upon skin contact. Typically, initial exposure to an allergen sensitizes the immune system, and following exposures cause an allergic response. Recent progress in understanding the mechanisms of skin sensitization identified interleukin-18 (IL-18) production in normal human epidermal keratinocytes (HEK) as a useful biomarker for skin contact sensitization (Corsini, et al., “Use of IL-18 Production In a Human Keratinocyte Cell Line to Discriminate Contact Sensitizers from Irritants and Low Molecular Weight Respiratory Allergens.” Toxicol In Vitro. 2009 August; 23(5):789-96; Teunis, et al., “Transfer of a Two-tiered Keratinocyte Assay: IL-18 Production by NCTC2544 to Determine the Skin Sensitizing Capacity and Epidermal Equivalent Assay to Determine Sensitizer Potency.” Toxicol In Vitro. 2013 April; 27(3):1135-50). […] Thus, IL-18 production in HEK was evaluated to determine sensitization potential.
Normal human adult epidermal keratinocytes (HEK) were cultured as described above for the cytoxicity evaluation. […] The cell lysates were collected, and IL-18 was quantified using Human IL-18 ELISA Kit (Catalog #7620, produced by MBL International Co., Woburn, Mass., USA). […] Fold changes of IL-18 levels between test articles and respective vehicle controls were calculated and compared to pPD. […]

Question: `Nc1ccc(N)cc1` [benchmark sensitizer, para-phenylenediamine] was tested. Which “IL18 Maximum fold change vs vehicle control” value did it give?
Answer: 7.8 fold)

Question: And the “IL18 Maximum fold change vs vehicle control” value (listed as para-phenylenediamine (pPD))?
Answer: significantly induced IL-18
